Assays:
[1] = Preclinical solubility studies of Compound A; type: physicochemical; details: certain preclinical studies
[2] = Non-sink dissolution (microcentrifuge assay, pH 2 then FaSSIF pH 6.5); type: physicochemical; details: after FaSSIF pH 6.5 transfer
Method: Non-sink dissolution is performed by adding the test composition to a solution of 0.01 N HCl pH 2 (e.g., in a centrifuge tube) and analyzing for 7-[[(1S)-1-[4-[(1S)-2-cyclopropyl-1-(4-prop-2-enoylpiperazin-1-yl)ethyl]phenyl]ethyl]amino]-1-ethyl-4H-pyrimido[4,5-d][1,3]oxazin-2-one solution concentration, by HPLC, at approximately time zero, 20 and 40 minutes. After approximately 40 minutes, a solution of fasted state simulated intestinal fluid (FaSSIF) pH 6.5, with 0.224 wt % bile salts, is added to the pH 2 solution. The 7-[[(1S)-1-[4-[(1S)-2-cyclopropyl-1-(4-prop-2-enoylpiperazin-1-yl)ethyl]phenyl]ethyl]amino]-1-ethyl-4H-pyrimido[4,5-d][1,3]oxazin-2-one concentration is monitored, by HPLC, at approximately 50, 70, 90 and 120 minutes after time zero. At each timepoint the samples are centrifuged at 18,500 g-force for 3 minutes to remove undissolved solids from the sample. For analysis, a supernatant sample (100 μL) is diluted 5× using 1:1 acetonitrile/H2O and analyzed. The non-sink dissolution test is completed at room temperature.

SMILES	solubility, acidic versus neutral environment [1]	solution concentration at the 70 minute timepoint at elevated pH as compared to TC1 [2]
C=CC(=O)N1CCN([C@@H](CC2CC2)c2ccc([C@H](C)Nc3ncc4c(n3)N(CC)C(=O)OC4)cc2)CC1 [TC1, 7-[[(1S)-1-[4-[(1S)-2-cyclopropyl-1-(4-prop-2-enoylpiperazin-1-yl)ethyl]phenyl]ethyl]amino]-1-ethyl-4H-pyrimido[4,5-d][1,3]oxazin-2-one]	more soluble in an acidic environment than a neutral one	–
C=CC(=O)N1CCN([C@@H](CC2CC2)c2ccc([C@H](C)Nc3ncc4c(n3)N(CC)C(=O)OC4)cc2)CC1 [TC2, 7-[[(1S)-1-[4-[(1S)-2-cyclopropyl-1-(4-prop-2-enoylpiperazin-1-yl)ethyl]phenyl]ethyl]amino]-1-ethyl-4H-pyrimido[4,5-d][1,3]oxazin-2-one, 2,5-dihydroxybenzoic acid (1:2)]	–	increased solution concentration

Source: US11746115B2, “Solid forms of 7-[[(1S)-1-[4-[(1S)-2-cyclopropyl-1-(4-prop-2-enoylpiperazin-1-yl)ethyl]phenyl]ethyl]amino]-1-ethyl-4H-pyrimido[4,5-d][1,3]oxazin-2-one” (Eli Lilly and Company, priority 2021, dated 2023)
